Laboratory results: patent US4321212A, “Method for preparing an optically active α-cyano-3-phenoxybenzyl 2-(4-substituted-phenyl)isovalerate” (Sumitomo Chemical Company Limited, priority 1980, dated 1982)
Converted amounts (≈) assume the structure as drawn.

How the values were obtained:
[1] = test system: houseflies; assay: Topical application to female adult WHO-strain houseflies (Test Example 2); type: in vivo, housefly, WHO-strain (standard susceptible strain); settings: 0.5 μl acetone solution to the thorax, female adults, 24 hours
Protocol: The compounds of this invention, (1), (2), (3), (4) and (5), were diluted with acetone to a predetermined concentration, and 0.5 μl of each solution was topically applied to the thorax of female adult WHO-strain houseflies (standard susceptible strain) with a microsyringe. The flies were placed in plastic cups each having a diameter of 11 cm in which a bait (3% sugar water) was placed. 24 hours later, the alive and dead was evaluated to determine the LD50 (median lethal dose) (μg/housefly).

[2] = test system: carmine mites; assay: Spray test against carmine mites on potted kidney beans (Test Example 3); type: in vivo, carmine mite; settings: 20% emulsifiable concentrate diluted 500-fold with water, 10 ml/pot, after 10 days
Protocol: 10 to 15 female adult carmine mites were placed on each leaf of potted kidney beans (2-leaf stage) 9 days old after seeding. After standing in a constant temperature room at 27° C. for a week, a lot of mites in various growth stages were observed on the beans. Each of the emulsifiable concentrates prepared from the compounds of this invention, (1), (2), (3), (4), and (5), in the procedures described in Formulation Example 2 was diluted 500-fold with water and sprayed to the beans on a turntable in a proportion of 10 ml/pot.

[3] = test system: tobacco cutworms; assay: Leaf-dip test on fourth instar larvae of tobacco cutworms (Test Example 1); type: in vivo, tobacco cutworm; settings: foliar, cabbage leaf dip 1 minute, emulsifiable concentrate diluted with water, 24 hours, 10 larvae per group, three replications, read-out: LC50 (concentration required for 50% death)
Protocol: Each of the emulsifiable concentrates prepared from the compounds of this invention, (4) and (5), in the procedures described in Formulation Example 2 was diluted with water to a pre-determined concentration, and mixed with 3,000 times by weight based on the diluted solution of a spreader (Shin-Rino, a registered trademark of Nippon Noyaku Co., Ltd., for a mixture containing 20% of an alkylphenol polyethylene glycol ether and 12% of a salt of lignin sulfonic acid).
The dried leaves were placed in plastic cups (diameter 10 cm, height 4 cm) at a rate of 2 leaves/cup, and the fourth instar larvae of tobacco cutworms were liberated therein. The dead and alive was evaluated after 24 hours and the values of LC50 (concentration required for 50% death) were obtained.
Experiments of three replications were carried out using 10 larvae per group.

Row | Compound | LD50 (median lethal dose) [1] [μg/housefly] | damage of the kidney beans by the mites [2] | LC50 [3] [µg/mL]
1 | CC(C)C(C(=O)OC(C#N)c1cccc(Oc2ccccc2)c1)c1ccc(OC(F)F)cc1 (racemic) [(b), reference compound] | 0.15 |  | 
2 | COc1ccc(C(C(=O)OC(C#N)c2cccc(Oc3ccccc3)c2)C(C)C)cc1 (racemic) [Reference Compound (a), reference compound] | 0.35 |  | 
3 | COc1ccc([C@@H](C(=O)OC(C#N)c2cccc(Oc3ccccc3)c2)C(C)C)cc1 (stereo partly drawn) [Compound (1), α-cyano-3-phenoxybenzyl S-(+)-2-(4-methoxyphenyl)isovalerate] | 0.18 | hardly observed | 
4 | COc1ccc([C@@H](C(=O)OC(C#N)c2cccc(Oc3ccccc3)c2)C(C)C)cc1 (stereo partly drawn) [Compound (2), α-cyano-3-phenoxybenzyl S-(+)-2-(4-methoxyphenyl)isovalerate] | 0.13 | hardly observed | 
5 | COc1ccc([C@@H](C(=O)O[C@H](C#N)c2cccc(Oc3ccccc3)c2)C(C)C)cc1 [Compound (3), (S)-α-cyano-3-phenoxybenzyl S-(+)-2-(4-methoxyphenyl)isovalerate] | 0.10 | hardly observed | 
6 | CC(C)[C@H](C(=O)O[C@H](C#N)c1cccc(Oc2ccccc2)c1)c1ccc(OC(F)F)cc1 [Compound (4), α-cyano-3-phenoxybenzyl S-(+)-2-(4-difluoromethoxyphenyl)isovalerate] | 0.038 | hardly observed | 5.9 (≈ 13.1 µM)
7 | CC(C)[C@H](C(=O)OC(C#N)c1cccc(Oc2ccccc2)c1)c1ccc(OC(F)F)cc1 (stereo partly drawn) [Compound (5), α-cyano-3-phenoxybenzyl S-(+)-2-(4-difluoromethoxyphenyl)isovalerate] | 0.042 | hardly observed | 6.9 (≈ 15.3 µM)
